Measured values: patent US8940913B2, “Herbicides” (Syngenta Crop Protection, LLC, priority 2007, dated 2015)

Experiments:
Format in all cases: in vivo
[1] = system: Alopecurus myosuroides (ALOMY); experiment: Post-emergence herbicidal activity, glasshouse pot test; details: 360 h, rate 125 g/ha, evaluated 15 days later, 100=total damage to plant, 0=no damage to plant
How it was run: (§1)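 Pot test, glasshouse: sow in standard soil; spray day 1 (pre-em.) or day 10 (post-em.); aqueous spray from acetone solution + formulation (10.6% Emulsogen EL, 42.2% NMP, 42.2% DPGME, 0.2% X-77); score 0–100 at 20 d pre / 15 d post.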

Lolium perenne (LOLPE) [2] = experiment: as above; details: 360 h, rate 125 g/ha, evaluated 15 days later, 100=total damage to plant, 0=no damage to plant
How it was run: as §1

[3] = system: Digitaria sanguinalis (DIGSA); experiment: as above; details: 360 h, rate 125 g/ha, evaluated 15 days later, 100=total damage to plant, 0=no damage to plant
How it was run: as §1

Setaria faberi (SETFA) [4] = experiment: as above; details: 360 h, rate 125 g/ha, evaluated 15 days later, 100=total damage to plant, 0=no damage to plant
How it was run: as §1

Avena fatua (AVEFA) [5] = experiment: as above; details: 360 h, rate 125 g/ha, evaluated 15 days later, 100=total damage to plant, 0=no damage to plant
How it was run: as §1

[6] = system: Echinochloa crus-galli (ECHCG); experiment: as above; details: 360 h, rate 125 g/ha, evaluated 15 days later, 100=total damage to plant, 0=no damage to plant
How it was run: as §1

[7] = system: Alopecurus myosuroides (ALOMY); experiment: Pre-emergence herbicidal activity, glasshouse pot test; details: 480 h, rate 250 g/ha, evaluated 20 days later, 100=total damage to plant, 0=no damage to plant
How it was run: as §1

Lolium perenne (LOLPE) [8] = experiment: as above; details: 480 h, rate 250 g/ha, evaluated 20 days later, 100=total damage to plant, 0=no damage to plant
How it was run: as §1

[9] = system: Digitaria sanguinalis (DIGSA); experiment: as above; details: 480 h, rate 250 g/ha, evaluated 20 days later, 100=total damage to plant, 0=no damage to plant
How it was run: as §1

Setaria faberi (SETFA) [10] = experiment: as above; details: 480 h, rate 250 g/ha, evaluated 20 days later, 100=total damage to plant, 0=no damage to plant
How it was run: as §1

Avena fatua (AVEFA) [11] = experiment: as above; details: 480 h, rate 250 g/ha, evaluated 20 days later, 100=total damage to plant, 0=no damage to plant
How it was run: as §1

[12] = system: Echinochloa crus-galli (ECHCG); experiment: as above; details: 480 h, rate 250 g/ha, evaluated 20 days later, 100=total damage to plant, 0=no damage to plant
How it was run: as §1

Row | Structure (SMILES) | pest or weed control at 125 g/ha [1] [%] | pest or weed control at 125 g/ha (Lolium perenne (LOLPE) [2]) [%] | pest or weed control at 125 g/ha [3] [%] | pest or weed control at 125 g/ha (Setaria faberi (SETFA) [4]) [%] | pest or weed control at 125 g/ha (Avena fatua (AVEFA) [5]) [%] | pest or weed control at 125 g/ha [6] [%] | pest or weed control at 250 g/ha [7] [%] | pest or weed control at 250 g/ha (Lolium perenne (LOLPE) [8]) [%] | pest or weed control at 250 g/ha [9] [%] | pest or weed control at 250 g/ha (Setaria faberi (SETFA) [10]) [%] | pest or weed control at 250 g/ha (Avena fatua (AVEFA) [11]) [%] | pest or weed control at 250 g/ha [12] [%]
1 | Cc1cc(-c2ccccc2)cc(C)c1C1=C(OC(=O)C(C)(C)C)[C@H]2[C@@H](C1=O)[C@@H]1CC[C@H]2O1 (racemic) [Compound P1, (1RS,2SR,6RS,7SR)-4-(3,5-dimethylbiphenyl-4-yl)-5-oxo-10-oxa-tricyclo[5.2.1.0^2,6]dec-3-en-3-yl 2,2-dimethylpropionate] | 100 | 90 | 80 | 80 | 50 | 100 | 100 | 100 | 100 | 90 | 70 | 100
2 | CCc1ccc(-c2ccc(Cl)cc2F)cc1C1=C(O)[C@H]2[C@@H](C1=O)[C@@H]1CC[C@H]2O1 [Compound T10] | 90 | 90 | 100 | 100 | 90 | 100 | 70 | 80 | 100 | 100 | 70 | 100
3 | CCc1ccc(-c2ccc(Cl)c(Cl)c2)cc1C1=C(O)[C@H]2[C@@H](C1=O)[C@]1(C)CC[C@@]2(C)O1 [Compound T29] | 90 | 50 | 100 | 100 | 90 | 100 | 10 | 30 | 40 | 50 | 0 | 0
4 | CCc1ccc(-c2ccc(Cl)c(F)c2F)cc1C1=C(O)[C@H]2[C@@H](C1=O)[C@]1(C)CC[C@@]2(C)O1 [Compound T38] | 100 | 50 | 100 | 80 | 90 | 100 | 0 | 50 | 30 | 90 | 30 | 100
5 | Cc1ccc(-c2cc(C)c(C3C(=O)[C@@H]4[C@H](C3=O)[C@H]3CC[C@@H]4O3)c(C)c2)cc1 (stereo partly drawn) [Compound T27] | 70 | 70 | 60 | 70 | 40 | 70 | 0 | 30 | 40 | 40 | 30 | 60
6 | CC(=O)OC1=C(c2c(C)cc(-c3ccccc3)cc2C)C(=O)[C@@H]2[C@H]1[C@@]1(C)CC[C@]2(C)O1 [Compound P6] | 70 | 60 | 90 | 100 | 50 | 100 | 80 | 70 | 100 | 100 | 30 | 100
